Assay [1] relates to 409B2 hiPSC (iCRISPR Cas9, FRMD7 editing). Put plainly: cell survival relative to solvent control (fold (ratio to mock)); higher = more surviving cells. Here is the method:
(§1)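 Subset screen of 55 drugs tested at 5 concentrations around the effective screening dose, in 409B2 iCRISPR Cas9 hiPSCs editing FRMD7 with a ssDNA donor. Drugs were applied for 24 h. Viability was read by resazurin and editing outcomes by amplicon sequencing (HDR, NHEJ <2 bp microhomology, MMEJ ≥2 bp microhomology). Values are relative to solvent mock controls; two biological replicates.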

Assay [2] shares this test system. In words: HDR (precise edit) frequency relative to solvent control (fold (ratio to mock)); higher = more homology-directed repair outcomes. The procedure:
as §1

Assay [3] shares this test system. Put plainly: NHEJ-attributed indel frequency relative to solvent control (fold (ratio to mock)); higher = more NHEJ outcomes. The procedure: as §1
For assay [4] the test system is unchanged. In words: MMEJ-attributed deletion frequency relative to solvent control (fold (ratio to mock)); higher = more MMEJ outcomes. The procedure: as §1

Counter-ions that a name gives are not always drawn. ± gives the standard deviation of the averaged measurements.

On to `CC(=O)O[C@]1(C(C)=O)CC[C@H]2[C@@H]3C=C(C)C4=CC(=O)CC[C@]4(C)[C@H]3CC[C@@]21C` [Megestrol Acetate] (in EtOH), for which the cell survival in assay [1] (20 nM) was found to be 1.6; in assay [1] (50 nM), 1.46; in assay [1] (100 nM), 1.18; in assay [1] (200 nM), 1.12; in assay [1] (500 nM) it was 1.05. Besides, the HDR in assay [2] (20 nM) was 0.975 ± 0.027; in assay [2] (50 nM), 0.93 ± 0.072; in assay [2] (100 nM), 0.95 ± 0.068; in assay [2] (200 nM), 0.953 ± 0.015; in assay [2] (500 nM), 0.96 ± 0.028. The NHEJ-attributed indel frequency in assay [3] (20 nM) was 0.999 ± 0.028; in assay [3] (50 nM), 1.004 ± 0.007; in assay [3] (100 nM), 1.03 ± 0.037; in assay [3] (200 nM), 1 ± 0.045; in assay [3] (500 nM), 1.02 ± 0.032. In addition, the MMEJ-attributed deletion frequency came to 1.01 ± 0.013 in assay [4] (20 nM); 1.16 ± 0.079 in assay [4] (50 nM); 0.9716 ± 0.0036 in assay [4] (100 nM); 1.1 ± 0.091 in assay [4] (200 nM); 0.9348 ± 0.0058 in assay [4] (500 nM).
With `CCCCCCCCCCCCCC(=O)O` [Myristic Acid] (in DMSO), the cell survival in assay [1] (20 nM) is 1.01; in assay [1] (50 nM) it was 1.23; in assay [1] (100 nM), 1.07; in assay [1] (200 nM), 1.25; in assay [1] (500 nM) it was 1.49. The HDR in assay [2] (20 nM) amounted to 1.04 ± 0.025; in assay [2] (50 nM), 1.03 ± 0.072; in assay [2] (100 nM) it was 1.034 ± 0.01; in assay [2] (200 nM), 1.07 ± 0.019; in assay [2] (500 nM), 1.1 ± 0.064. Moreover, the NHEJ-attributed indel frequency in assay [3] (20 nM) was found to be 0.9964 ± 0.0076; in assay [3] (50 nM) it was 1.0053 ± 2.8e-05; in assay [3] (100 nM), 1.016 ± 0.003; in assay [3] (200 nM), 0.981 ± 0.024; in assay [3] (500 nM), 0.967 ± 0.0099. The MMEJ-attributed deletion frequency in assay [4] (20 nM) was 0.977 ± 0.13; in assay [4] (50 nM), 0.921 ± 0.13; in assay [4] (100 nM), 1.02 ± 0.2; in assay [4] (200 nM) it was 1.1 ± 0.051; in assay [4] (500 nM) it was 1.03 ± 0.099.
Take `C[C@@H]1O[C@@H](O[C@H]2C[C@@H](O)[C@]3(CO)[C@H]4[C@H](O)C[C@]5(C)[C@@H](C6=CC(=O)OC6)CC[C@]5(O)[C@@H]4CC[C@]3(O)C2)[C@H](O)[C@H](O)[C@H]1O` [Ouabain Octahydrate] (in H2O): the cell survival in assay [1] (2000 nM) came to 0.0512; in assay [1] (5000 nM) it was 0.0777; in assay [1] (10000 nM) it was 0.0589; in assay [1] (20000 nM), 0.0655; in assay [1] (50000 nM), 0.585. Also, the HDR in assay [2] (2000 nM) was determined as 0.0693 ± 0.021; in assay [2] (5000 nM), 0.0683 ± 0.03; in assay [2] (10000 nM), 0.0814 ± 0.045; in assay [2] (20000 nM) it was 0.068 ± 0.013; in assay [2] (50000 nM) it was 0.505 ± 0.64. Also, the NHEJ-attributed indel frequency worked out at 0.523 ± 0.026 in assay [3] (2000 nM); 0.539 ± 0.1 in assay [3] (5000 nM); 0.435 ± 0.13 in assay [3] (10000 nM); 0.392 ± 0.093 in assay [3] (20000 nM); 0.736 ± 0.38 in assay [3] (50000 nM). The MMEJ-attributed deletion frequency amounted to 3.06 ± 0.43 in assay [4] (2000 nM); 2.82 ± 1.1 in assay [4] (5000 nM); 2.58 ± 0.43 in assay [4] (10000 nM); 2.31 ± 0.4 in assay [4] (20000 nM); 1.87 ± 1.1 in assay [4] (50000 nM).
Turning to `CC1(C)S[C@@H]2[C@H](NC(=O)COc3ccccc3)C(=O)N2[C@H]1C(=O)O` [Penicillin V potassium salt] (in DMSO), the cell survival was 0.876 in assay [1] (200 nM); 1.15 in assay [1] (500 nM); 0.976 in assay [1] (1000 nM); 0.894 in assay [1] (2000 nM); 0.923 in assay [1] (5000 nM). Besides, the HDR in assay [2] (200 nM) was 0.992 ± 0.094; in assay [2] (500 nM), 1.05 ± 0.012; in assay [2] (1000 nM), 0.992 ± 0.02; in assay [2] (2000 nM), 1.01 ± 0.062; in assay [2] (5000 nM), 0.964 ± 0.11. Further, the NHEJ-attributed indel frequency in assay [3] (200 nM) worked out at 1.006 ± 0.0015; in assay [3] (500 nM) it was 1.012 ± 0.0034; in assay [3] (1000 nM) it was 0.9903 ± 0.0037; in assay [3] (2000 nM), 1 ± 0.021; in assay [3] (5000 nM) it was 1.01 ± 0.013. Moreover, the MMEJ-attributed deletion frequency in assay [4] (200 nM) is 1.02 ± 0.097; in assay [4] (500 nM), 0.994 ± 0.04; in assay [4] (1000 nM), 0.963 ± 0.15; in assay [4] (2000 nM), 1.1 ± 0.047; in assay [4] (5000 nM), 1.05 ± 0.11.
As for `Cc1c(C(C)C)c(=O)n(-c2ccccc2)n1C` [Propyphenazone (4-Isopropylantipyrine)] (in DMSO), the cell survival stood at 1.03 in assay [1] (200 nM); 1.24 in assay [1] (500 nM); 1.03 in assay [1] (1000 nM); 1.2 in assay [1] (2000 nM); 1.13 in assay [1] (5000 nM). Besides, the HDR in assay [2] (200 nM) came out at 1.04 ± 0.021; in assay [2] (500 nM), 1.11 ± 0.044; in assay [2] (1000 nM) it was 1.1 ± 0.068; in assay [2] (2000 nM), 1.07 ± 0.064; in assay [2] (5000 nM), 1.08 ± 0.031. The NHEJ-attributed indel frequency was 1.01 ± 0.013 in assay [3] (200 nM); 0.993 ± 0.022 in assay [3] (500 nM); 0.993 ± 0.041 in assay [3] (1000 nM); 0.995 ± 0.035 in assay [3] (2000 nM); 0.988 ± 0.014 in assay [3] (5000 nM). The MMEJ-attributed deletion frequency in assay [4] (200 nM) is 0.984 ± 0.021; in assay [4] (500 nM) it was 0.969 ± 0.059; in assay [4] (1000 nM) it was 0.881 ± 0.036; in assay [4] (2000 nM), 0.954 ± 0.091; in assay [4] (5000 nM) it was 0.965 ± 0.06.
Regarding `Cc1nc(=O)c2cc(CN(C)c3ccc(C(=O)N[C@@H](CCC(=O)O)C(=O)O)s3)ccc2[nH]1` [Raltitrexed] (in DMSO), the cell survival in assay [1] (200 nM) amounted to 1.09; in assay [1] (500 nM), 1.21; in assay [1] (1000 nM) it was 0.963; in assay [1] (2000 nM), 1.05; in assay [1] (5000 nM), 1.11. The HDR in assay [2] (200 nM) was found to be 1.138 ± 0.0048; in assay [2] (500 nM), 1.13 ± 0.038; in assay [2] (1000 nM) it was 1.16 ± 0.1; in assay [2] (2000 nM) it was 1.13 ± 0.042; in assay [2] (5000 nM) it was 1.13 ± 0.14. Further, the NHEJ-attributed indel frequency came out at 0.977 ± 0.023 in assay [3] (200 nM); 0.967 ± 0.01 in assay [3] (500 nM); 0.984 ± 0.021 in assay [3] (1000 nM); 0.981 ± 0.026 in assay [3] (2000 nM); 0.957 ± 0.039 in assay [3] (5000 nM). Also, the MMEJ-attributed deletion frequency is 1.01 ± 0.14 in assay [4] (200 nM); 1 ± 0.078 in assay [4] (500 nM); 1.12 ± 0.035 in assay [4] (1000 nM); 0.948 ± 0.012 in assay [4] (2000 nM); 1.02 ± 0.057 in assay [4] (5000 nM).

The values are drawn from the supplement of paper PMC12698765.
